Columns and labels:
[1] = Lubricating effect: pendulum-type dynamic friction coefficient measurement; type: physicochemical; details: for Dynamic friction coefficient: room temperature, mean of three
Procedure: Lubricating effect of fullerene was examined using three different solutions. 20 ml each of the solutions of (A) osteoarthritis patient-derived synovial fluid, (B) 50% polyethylene glycol solution, and (C) joint function-improving agent (hyaluronic acid formulation) were prepared, and dispensed into two tubes at 10 ml each. One 10 ml solution was mixed with fullerene (C60) to adjust the final concentration to 1.0 μM. The other 10 ml solution was used as a control solution. The dynamic friction coefficients of the respective solutions at room temperature were measured three times by a pendulum-type dynamic friction coefficient measuring apparatus (Japan Lubricating Oil Society), and the mean values were calculated. The dynamic friction coefficients were compared between the fullerene solutions and the control solutions.

[2] = test system: osteoarthritis model animals (rabbits); experiment: Osteoarthritis rabbit model, intraarticular water-solubilized fullerene 0.1 to 40.0 μM, safranin O cartilage degeneration; type: in vivo; details: for Efficacy on cartilage degeneration (rabbits responding): eight-week administration
Procedure: Various concentrations (0.1, 1.0, 10.0, or 40.0 μM) of water-solubilized fullerene (cyclodextrin clathrate C60) was injected into the right knee joints of osteoarthritis model animals (rabbits), and solvent alone was injected into the left knee joints as controls intraarticularly once a week. On the fourth or eighth week after the start of administration, the knees were dissected and stained with safranin O, to compare the degree of cartilage degeneration of medial and lateral tibia.
As described above, the therapeutic effect of the four-week or eight-week repetitive administration with water-solubilized fullerene was confirmed. Therefore, the therapeutic effect of a single administration of water-solubilized fullerene was also examined. Immediately after the preparation of an osteoarthritis rabbit model, a single dose of water-solubilized fullerene was administered. On the eighth week, articular cartilage tissue samples were prepared, and the therapeutic effect was examined.

[3] = test system: osteoarthritis model (rabbit); experiment: Comparative test of water-solubilized fullerene and hyaluronic acid formulation in osteoarthritis model; type: in vivo; details: 1.0 μM, 2.0 ml/rabbit, eighth week; compared with hyaluronic acid formulation
Procedure: The medicinal effect of water-solubilized fullerene (cyclodextrin clathrate C60) was examined comparatively with a known articular function-improving agent (the hyaluronic acid formulation Suvenyl (registered trademark)). Specifically, the effects at the eighth week after the start of treatment on rabbits in the following five groups (A) to (E) were examined. Each group consisted of four rabbits and the administration dosage was 2.0 ml/rabbit in all groups.
Test groups: (A) Sham-operation, group administered with Suvenyl; (B) Sham-operation, group administered with 50% polyethylene glycol; (C) Osteoarthritis model, group administered with 1.0 μM water-solubilized fullerene; (D) Osteoarthritis model, group administered with 50% Suvenyl; (E) Osteoarthritis model, group administered with 1.0 μM water-solubilized fullerene and Suvenyl.

MMP-3 = MMP-3 concentration in synovial fluid of osteoarthritis model knee joints (ELISA); type: in vivo, rabbit; details: various concentrations, sequential measurement, versus control knees
Procedure: (§1) Sequential biochemical examinations of blood and synovial fluid were also performed (pre-administration and fourth- and eighth-week post-administration of water-solubilized fullerene). The observed biochemical examination items were (A) hepatic function (GOT and GPT), renal function (urea nitrogen and creatinine), and electrolytes (Na, K, and Cl), (B) extracellular matrix-degrading enzyme production ability (MMP-1, 3, and 13), and (C) cartilage matrix-synthesizing ability (proteoglycan). The items of (A) were measured by commercially available testing equipments and items of (B) and (C) were measured by ELISA method.

[4] = General condition, organ histology and blood biochemical examination during eight-week administration; type: in vivo, rabbit
Procedure: In particular, in the eight-week administration, the inhibitory effect of water-solubilized fullerene on cartilage degeneration was more remarkable in the 1.0 μM and 10.0 μM administered groups rather than the 0.1 μM administered group. […] During the eight-week test period, decrease in body weight, insufficient feeding, hematuria, or abnormal hair coat was not observed in the experimental animals.
as §1

proteoglycan = experiment: Proteoglycan concentration in synovial fluid of osteoarthritis model knee joints (ELISA); type: in vivo, rabbit; details: sequential measurement
Procedure: as §1

[5] = 1 μM in 50% polyethylene glycol
[6] = 1 μM in hyaluronic acid formulation
[7] = 1 μM in osteoarthritis patient-derived synovial fluid

| Hepatic function, renal function, electrolyte balance ([4]; pre-administration, fourth and eighth week post-administration) | Molecule | Friction coefficient decreasing rate to control solution [1, 5] [%] | Dynamic friction coefficient [1, 5] | Friction coefficient decreasing rate to control solution [1, 6] [%] | Dynamic friction coefficient [1, 6] | Friction coefficient decreasing rate to control solution [1, 7] [%] | Dynamic friction coefficient [1, 7] | Cartilage degeneration inhibitory effect across doses ([2]; 0.1 μM to 40 μM, four-week administration) | Efficacy on cartilage degeneration (rabbits responding) ([2]; 0.1 μM) | Efficacy on cartilage degeneration (rabbits responding) ([2]; 1.0 μM) | Efficacy on cartilage degeneration (rabbits responding) ([2]; 10.0 μM) | Efficacy on cartilage degeneration (rabbits responding) ([2]; 40.0 μM) | Inhibitory effect on articular cartilage degeneration ([2]; 0.1, 1.0, 10.0 or 40.0 μM intraarticular once a week, four-week and eight-week administration) | Inhibitory effect on cartilage degeneration after single administration ([2]; single dose immediately after model preparation, eighth week, versus control knees) | Inhibitory effect on the production of cartilage matrix-degrading enzymes (MMPs) [3] | Producing/maintaining effect of proteoglycan [3] | MMP-3 concentration in synovial fluid (MMP-3) | Decrease in body weight, insufficient feeding, hematuria, abnormal hair coat ([4]; eight-week test period) | Optical microscopic observation of organs other than the joints (brain, lung, liver, kidney, adrenal, testis) ([4]; eight-week test period) | Proteoglycan concentration in synovial fluid (proteoglycan) |
| --- | --- | --- | --- | --- | --- | --- | --- | --- | --- | --- | --- | --- | --- | --- | --- | --- | --- | --- | --- | --- |
| – | c12c3c4c5c1c1c6c7c2c2c8c3c3c9c4c4c%10c5c5c1c1c6c6c%11c7c2c2c7c8c3c3c8c9c4c4c9c%10c5c5c1c1c6c6c%11c2c2c7c3c3c8c4c4c9c5c1c1c6c2c3c41 [C60, fullerene (C60)] | 25 | 0.104 | 42 | 0.116 | 37 | 0.111 | – | – | – | – | – | – | – | – | – | – | – | – | – |
| not significantly changed | cyclodextrin clathrate C60 [water-solubilized fullerene] | – | – | – | – | – | – | almost equivalent | a mild efficacy in all four rabbits | a moderate efficacy in two rabbits and a remarkable efficacy in one rabbit out of a total of four | a remarkable efficacy in three rabbits out of a total of four | a mild efficacy in one rabbit and moderate efficacy in another rabbit out of a total of three | confirmed at the respective concentrations | no clear inhibitory effect on cartilage degeneration was observed | more remarkable effects than the hyaluronic acid formulation | more remarkable effects than the hyaluronic acid formulation | not clear | not observed | no findings showing degeneration in the respective tissues | not clear |

Source: patent US8395037B2, “Pharmaceutical compositions for treating/preventing motor organ diseases” (Mitsubishi Corporation, priority 2005, dated 2013)
